The test system of one assay is TNFα. Put plainly: cells. The class given is cell-based, human. Conditions: Homo sapiens, Monocyte, LPS-stimulated human monocytes, TNFα content; read-out: EC50 TNF.
For the next assay, the target named is IRAK4 enzyme (Homo sapiens (Human), UniProt Q9NWZ3). Put plainly: biochemical. Type of assay: biochemical. To be noted: IRAK4 enzyme, TR-FRET (HTRF), 500 μM ATP.

Here are results for 24 molecules from patent US10336762B2 (priority 2017, dated 2019).

Sequence of IRAK4 enzyme (Q9NWZ3 whole entry): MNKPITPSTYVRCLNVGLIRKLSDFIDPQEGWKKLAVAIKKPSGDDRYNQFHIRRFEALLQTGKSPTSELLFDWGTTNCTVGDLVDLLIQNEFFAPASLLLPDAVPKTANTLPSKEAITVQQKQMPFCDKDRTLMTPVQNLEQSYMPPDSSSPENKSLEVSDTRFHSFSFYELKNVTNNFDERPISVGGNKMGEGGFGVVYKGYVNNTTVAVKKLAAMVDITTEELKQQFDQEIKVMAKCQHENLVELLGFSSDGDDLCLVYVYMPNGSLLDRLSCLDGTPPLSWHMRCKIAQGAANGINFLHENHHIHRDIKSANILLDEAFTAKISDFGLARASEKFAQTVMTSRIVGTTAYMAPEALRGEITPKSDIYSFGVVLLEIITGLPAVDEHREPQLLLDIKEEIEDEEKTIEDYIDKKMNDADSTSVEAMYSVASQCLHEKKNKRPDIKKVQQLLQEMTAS

By EC50 is commonly meant the concentration needed to bring the measured effect to its halfway point. As usually defined, the IC50 is the concentration that gives 50% inhibition. The low end stands for greater potency in that assay, the high end for weaker potency in that assay. Regarding `CC(C)(O)[C@H](F)CNC(=O)c1cnc(-c2ccc3cc(C#N)cnn23)cc1N[C@H]1C[C@H](CNC(=O)[C@@H]2C[C@H]2F)C1` [Example 659, 6-(3-cyanopyrrolo[1,2-b]pyridazin-7-yl)-N-((R)-2-fluoro-3-hydroxy-3-methylbutyl)-4-(((1S,3R)-3-(((1S,2R)-2-fluoro-cyclopropane-1-carbox-amido)methyl)cyclobutyl)amino)nicotinamide], the EC50 in the assay on TNFα worked out at 0.016 µM. At IRAK4 enzyme, this molecule displayed a half-maximal inhibitory concentration (IC50) of less than 0.001 µM.

For the molecule `Cc1n[nH]c2cc(Nc3cc(-c4ccc5cc(C#N)cnn45)ncc3C(=O)NC[C@@H](F)C(C)(C)O)ccc12` [Example 660, (R)-6-(3-cyanopyrrolo[1,2-b]pyridazin-7-yl)-N-(2-fluoro-3-hydroxy-3-methylbutyl)-4-((3-methyl-1H-indazol-6-yl)amino) nicotinamide], the concentration giving a half-maximal response (EC50) with TNFα amounted to 0.064 µM. Further, the IC50 against IRAK4 enzyme is 0.001 µM.

For the molecule `CNc1ccc(Nc2cc(-c3ccc4cc(C#N)cnn34)ncc2C(=O)NC[C@@H](F)C(C)(C)O)cn1` [Example 661, (R)-6-(3-cyanopyrrolo[1,2-b]pyridazin-7-yl)-N-(2-fluoro-3-hydroxy-3-methylbutyl)-4-((6-(methylamino)pyridin-3-yl)amino)nicotinamide], in the assay with TNFα, the EC50 was found to be 0.019 µM. Also, the IC50 against IRAK4 enzyme is less than 0.001 µM.

With `CC(=O)Nc1ccc(Nc2cc(-c3ccc4cc(C#N)cnn34)ncc2C(=O)NC[C@@H](F)C(C)(C)O)cn1` [Example 662, (R)-4-((6-acetamido-pyridin-3-yl)amino)-6-(3-cyanopyrrolo[1,2-b]pyridazin-7-yl)-N-(2-fluoro-3-hydroxy-3-methylbutyl)nicotinamide], in the assay on TNFα, the EC50 was 0.012 µM. In addition, the concentration for half-maximal inhibition (IC50) against IRAK4 enzyme was less than 0.001 µM.

For `COCCOc1ncc(Nc2cc(-c3ccc4cc(C#N)cnn34)ncc2C(=O)NC[C@@H](F)C(C)(C)O)cn1` [Example 663, (R)-6-(3-cyanopyrrolo[1,2-b]pyridazin-7-yl)-N-(2-fluoro-3-hydroxy-3-methylbutyl)-4-((2-(2-methoxyethoxy)pyrimidin-5-yl)amino)nicotinamide], the EC50 in the assay with TNFα was 0.052 µM. Besides, the IC50 at IRAK4 enzyme is less than 0.001 µM.

Regarding `CC(C)(O)[C@H](F)CNC(=O)c1cnc(-c2ccc3cc(C#N)cnn23)cc1Nc1ccc(CO)nc1` [Example 664, (R)-6-(3-cyanopyrrolo[1,2-b]pyridazin-7-yl)-N-(2-fluoro-3-hydroxy-3-methylbutyl)-4-((6-(hydroxymethyl)pyridin-3-yl)amino)nicotinamide], the EC50 in the assay with TNFα was 0.014 µM. This molecule returned an IC50 against IRAK4 enzyme of less than 0.001 µM.

Regarding `CC(C)(O)[C@H](F)CNC(=O)c1cnc(-c2ccc3cc(C#N)cnn23)cc1Nc1ccc2c(c1)C1(CC1)C(=O)N2` [Example 665, (R)-6-(3-cyanopyrrolo[1,2-b]pyridazin-7-yl)-N-(2-fluoro-3-hydroxy-3-methylbutyl)-4-((2′-oxospiro[cyclopropane-1,3′-indolin]-5′-yl)amino)nicotinamide], the EC50 with TNFα was found to be 0.299 µM. The molecule further came in with an IC50 against IRAK4 enzyme of 0.008 µM.

With `CC(C)(O)[C@H](F)CNC(=O)c1cnc(-c2ccc3cc(C#N)cnn23)cc1Nc1cnc(C2CC2)nc1` [Example 666, (R)-6-(3-cyanopyrrolo[1,2-b]pyridazin-7-yl)-4-((2-cyclopropylpyrimidin-5-yl)amino)-N-(2-fluoro-3-hydroxy-3-methylbutyl) nicotinamide], the EC50 in the assay with TNFα worked out at 0.03 µM. On IRAK4 enzyme, this molecule yielded an IC50 of less than 0.001 µM.

For the molecule `COc1ccc(Nc2cc(-c3ccc4cc(C#N)cnn34)ncc2C(=O)NC[C@@H](F)C(C)(C)O)nc1` [Example 667, (R)-6-(3-cyanopyrrolo[1,2-b]pyridazin-7-yl)-N-(2-fluoro-3-hydroxy-3-methylbutyl)-4-((5-methoxypyridin-2-yl)amino)nicotinamide], the EC50 in the assay on TNFα was found to be 0.045 µM. The molecule further displayed an IC50 at IRAK4 enzyme of less than 0.001 µM.

In the case of `CC(C)(O)[C@H](F)CNC(=O)c1cnc(-c2ccc3cc(C#N)cnn23)cc1Nc1cnc2c(c1)CC(=O)N2` [Example 668, (R)-6-(3-cyanopyrrolo[1,2-b]pyridazin-7-yl)-N-(2-fluoro-3-hydroxy-3-methylbutyl)-4-((2-oxo-2,3-dihydro-1H-pyrrolo[2,3-b]pyridin-5-yl)amino)nicotinamide], the EC50 in the assay on TNFα was found to be 0.165 µM. On IRAK4 enzyme, this molecule had an IC50 of 0.001 µM.

Take `CN(C)c1ncc(Nc2cc(-c3ccc4cc(C#N)cnn34)ncc2C(=O)NC[C@@H](F)C(C)(C)O)cn1` [Example 669, (R)-6-(3-cyanopyrrolo[1,2-b]pyridazin-7-yl)-4-((2-(dimethylamino)pyrimidin-5-yl)amino)-N-(2-fluoro-3-hydroxy-3-methylbutyl) nicotinamide]: the EC50 in the assay on TNFα is 0.004 µM. Also, at IRAK4 enzyme, the IC50 is less than 0.001 µM.

For the molecule `CC(C)(O)[C@H](F)CNC(=O)c1cnc(-c2ccc3cc(C#N)cnn23)cc1Nc1ccc(CO)cn1` [Example 670, (R)-6-(3-cyanopyrrolo[1,2-b]pyridazin-7-yl)-N-(2-fluoro-3-hydroxy-3-methylbutyl)-4-((5-(hydroxymethyl)pyridin-2-yl)amino)nicotinamide], the EC50 in the assay with TNFα is more than 10 µM. Further, on IRAK4 enzyme, half-maximal inhibition (IC50) required 0.093 µM.

For the molecule `CC(C)(O)[C@H](F)CNC(=O)c1cnc(-c2ccc3cc(C#N)cnn23)cc1Nc1cnc(N2CCOCC2)nc1` [Example 671, (R)-6-(3-cyanopyrrolo[1,2-b]pyridazin-7-yl)-N-(2-fluoro-3-hydroxy-3-methylbutyl)-4-((2-morpholinopyrimidin-5-yl)amino)nicotinamide], the EC50 in the assay with TNFα was 0.022 µM. Moreover, the IC50 against IRAK4 enzyme was less than 0.001 µM.

On to `CC(C)(O)[C@H](F)CNC(=O)c1cnc(-c2ccc3cc(C#N)cnn23)cc1NC1Cc2ccncc2C1` (stereo partly drawn) [Example 672, 6-(3-cyanopyrrolo[1,2-b]pyridazin-7-yl)-4-((6,7-dihydro-5H-cyclopenta[c]pyridin-6-yl)amino)-N-((R)-2-fluoro-3-hydroxy-3-methylbutyl)nicotinamide], for which the EC50 in the assay with TNFα worked out at 0.066 µM. At IRAK4 enzyme, this molecule registered a 50% inhibitory concentration (IC50) of less than 0.001 µM.

For the molecule `CC(C)(O)[C@H](F)CNC(=O)c1cnc(-c2ccc3cc(C#N)cnn23)cc1Nc1ccc(N2CCOCC2)nc1` [Example 673, (R)-6-(3-cyanopyrrolo[1,2-b]pyridazin-7-yl)-N-(2-fluoro-3-hydroxy-3-methyl-butyl)-4-((6-morpholino-pyridin-3-yl)amino) nicotinamide], the EC50 with TNFα was determined as 0.019 µM. The molecule further had an IC50 on IRAK4 enzyme of less than 0.001 µM.

Consider `CNC(=O)c1ncc(Nc2cc(-c3ccc4cc(C#N)cnn34)ncc2C(=O)NC[C@@H](F)C(C)(C)O)cn1` [Example 674, (R)-5-((2-(3-cyano-pyrrolo[1,2-b]pyridazin-7-yl)-5-((2-fluoro-3-hydroxy-3-methylbutyl)carbamoyl)pyridin-4-yl)amino)-N-methyl-pyrimidine-2-carboxamide], for which the EC50 in the assay with TNFα was 0.067 µM. On IRAK4 enzyme, the IC50 is less than 0.001 µM.

On to `CC(C)(O)[C@H](F)CNC(=O)c1cnc(-c2ccc3cc(C#N)cnn23)cc1Nc1ccc(N2CCC2)nc1` [Example 675, (R)-4-((6-(azetidin-1-yl)pyridin-3-yl)amino)-6-(3-cyanopyrrolo[1,2-b]pyridazin-7-yl)-N-(2-fluoro-3-hydroxy-3-methylbutyl)nicotinamide], for which the EC50 in the assay with TNFα amounted to 0.023 µM. The molecule further yielded an IC50 on IRAK4 enzyme of less than 0.001 µM.

Turning to `CC(C)(O)[C@H](F)CNC(=O)c1cnc(-c2ccc3cc(C#N)cnn23)cc1Nc1ccc(CC#N)nc1` [Example 678, (R)-4-((6-(cyanomethyl)pyridin-3-yl)amino)-6-(3-cyanopyrrolo[1,2-b]pyridazin-7-yl)-N-(2-fluoro-3-hydroxy-3-methylbutyl)nicotinamide], the EC50 in the assay with TNFα was 0.009 µM. In addition, the concentration for half-maximal inhibition (IC50) at IRAK4 enzyme was less than 0.001 µM.

Regarding `CN(C)c1ccc(Nc2cc(-c3ccc4cc(C#N)cnn34)ncc2C(=O)NC[C@@H](F)C(C)(C)O)cn1` [Example 679, (R)-6-(3-cyanopyrrolo[1,2-b]pyridazin-7-yl)-4-((6-(dimethylamino)pyridin-3-yl)amino)-N-(2-fluoro-3-hydroxy-3-methylbutyl)nicotinamide], the EC50 in the assay with TNFα was 0.017 µM. The half-maximal inhibitory concentration (IC50) at IRAK4 enzyme was less than 0.001 µM.

For `CCc1ncc(Nc2cc(-c3ccc4cc(C#N)cnn34)ncc2C(=O)NC[C@@H](F)C(C)(C)O)cn1` [Example 680, (R)-6-(3-cyanopyrrolo[1,2-b]pyridazin-7-yl)-4-((2-ethylpyrimidin-5-yl)amino)-N-(2-fluoro-3-hydroxy-3-methylbutyl)nicotinamide], the EC50 with TNFα came out at 0.015 µM. For the same molecule, the IC50 against IRAK4 enzyme was less than 0.001 µM.

With `CC(C)(O)[C@H](F)CNC(=O)c1cnc(-c2ccc3cc(C#N)cnn23)cc1Nc1cnc(N2CCC2)nc1` [Example 681, (R)-4-((2-(azetidin-1-yl)pyrimidin-5-yl)amino)-6-(3-cyanopyrrolo[1,2-b]pyridazin-7-yl)-N-(2-fluoro-3-hydroxy-3-methylbutyl) nicotinamide], in the assay with TNFα, the EC50 is 0.006 µM. This molecule also came in with a concentration for half-maximal inhibition (IC50) against IRAK4 enzyme of less than 0.001 µM.

With `CC(C)(O)[C@H](F)CNC(=O)c1cnc(-c2ccc3cc(C#N)cnn23)cc1Nc1ccc(N2CC(F)(F)C2)nc1` [Example 682, (R)-6-(3-cyanopyrrolo[1,2-b]pyridazin-7-yl)-4-((6-(3,3-difluoroazetidin-1-yl)pyridin-3-yl)amino)-N-(2-fluoro-3-hydroxy-3-methylbutyl) nicotinamide], the EC50 in the assay with TNFα worked out at 0.022 µM. For the same molecule, at IRAK4 enzyme, inhibition was half-maximal at 0.001 µM (IC50).

Turning to `CC(C)(C#N)c1ccc(Nc2cc(-c3ccc4cc(C#N)cnn34)ncc2C(=O)NC[C@@H](F)C(C)(C)O)cn1` [Example 683, (R)-4-((6-(2-cyanopropan-2-yl)pyridin-3-yl)amino)-6-(3-cyanopyrrolo[1,2-b]pyridazin-7-yl)-N-(2-fluoro-3-hydroxy-3-methyl-butyl)nicotinamide], the EC50 with TNFα amounted to 0.045 µM. The IC50 against IRAK4 enzyme came to 0.001 µM.

On to `CC(C)(O)[C@H](F)CNC(=O)c1cnc(-c2ccc3cc(C#N)cnn23)cc1Nc1ccc(N2CC3(COC3)C2)nc1` [Example 684, (R)-4-((6-(2-oxa-6-azaspiro[3.3]heptan-6-yl)pyridin-3-yl)amino)-6-(3-cyanopyrrolo[1,2-b]pyridazin-7-yl)-N-(2-fluoro-3-hydroxy-3-methylbutyl)nicotinamide], for which the EC50 with TNFα was determined as 0.089 µM. This molecule also came in with a half-inhibitory concentration (IC50) on IRAK4 enzyme of 0.001 µM.
